Laboratory results reported in patent EP4741389A1, “KAT6 INHIBITOR” (Shanghai Qilu Pharmaceutical Research and Development …, priority 2023, dated 2025).

Assays:
ZR-75-1 cells = experiment: ZR-75-1 cell proliferation assay (CellTiter-Glo); assay type: cell-based; conditions: Homo sapiens, ZR-75-1, 240 h, total culture period of 10 days, read-out: ZR-75-1 Proliferation Inhibition IC50
Summary of the method: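 ZR-75-1 cells were exposed to compound for 10 days in total at 37°C and 5% CO2, being trypsinized, counted and re-seeded every 5 days, with fresh compound added after each re-seeding. Viability was read by CellTiter-Glo luminescence, and IC50 was derived from a four-parameter logistic fit.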

[1] = Body weight changes and tolerability in the ZR-75-1 xenograft study; assay type: in vivo, Mouse; conditions: result in words; for body weight changes: differences among the groups, FIG. 1; for tolerability in tumor-bearing mice: human breast cancer ZR-75-1 model
Method: (§1) • Species: Mouse; • Strain: BALB/c nude mice; • Age and weight: 6-8 weeks old, weighing 19-26 grams; • Gender: Female; • Supplier: GemPharmatech Co., Ltd.; • Compound source: Compound A: [drawing 190] prepared with reference to patent CN114364672A.
(§2) A mixture containing 10×10^6 ZR-75-1 cells in 100 µL PBS and 100 µL Matrigel (final volume was 200 µL) was subcutaneously implanted into the right dorsal side (upper side) of each mouse. On day 18 after cell implantation, when the average tumor volume reached 138 mm^3, grouping and administration were initiated. Mice with tumor volumes ranging from 100 to 212 mm^3 were selected for the study. Mice were randomly assigned to groups based on body weight and tumor volume, with 7 mice per group. The day of grouping was designated as PG-D0, and administration for all groups started from PG-D0.
The effects of the test drugs Compound 2, Compound 5-P2, Compound 3, and Compound A on the body weight of the female BALB/c nude mouse model with subcutaneously implanted human breast cancer ZR-75-1 cell xenografts are shown in FIG. 1.

KAT6B = biological target: T1, KAT6B (Homo sapiens, UniProt Q8WYB5); experiment: KATs acetyltransferase enzyme activity assay (TR-FRET), KAT6B; assay type: biochemical; conditions: Biotin-H3 (1-21) and AcCOA, 90 minutes at room temperature
T1 construct: purchased Active Motif 81224
T1 sequence (Q8WYB5 whole entry): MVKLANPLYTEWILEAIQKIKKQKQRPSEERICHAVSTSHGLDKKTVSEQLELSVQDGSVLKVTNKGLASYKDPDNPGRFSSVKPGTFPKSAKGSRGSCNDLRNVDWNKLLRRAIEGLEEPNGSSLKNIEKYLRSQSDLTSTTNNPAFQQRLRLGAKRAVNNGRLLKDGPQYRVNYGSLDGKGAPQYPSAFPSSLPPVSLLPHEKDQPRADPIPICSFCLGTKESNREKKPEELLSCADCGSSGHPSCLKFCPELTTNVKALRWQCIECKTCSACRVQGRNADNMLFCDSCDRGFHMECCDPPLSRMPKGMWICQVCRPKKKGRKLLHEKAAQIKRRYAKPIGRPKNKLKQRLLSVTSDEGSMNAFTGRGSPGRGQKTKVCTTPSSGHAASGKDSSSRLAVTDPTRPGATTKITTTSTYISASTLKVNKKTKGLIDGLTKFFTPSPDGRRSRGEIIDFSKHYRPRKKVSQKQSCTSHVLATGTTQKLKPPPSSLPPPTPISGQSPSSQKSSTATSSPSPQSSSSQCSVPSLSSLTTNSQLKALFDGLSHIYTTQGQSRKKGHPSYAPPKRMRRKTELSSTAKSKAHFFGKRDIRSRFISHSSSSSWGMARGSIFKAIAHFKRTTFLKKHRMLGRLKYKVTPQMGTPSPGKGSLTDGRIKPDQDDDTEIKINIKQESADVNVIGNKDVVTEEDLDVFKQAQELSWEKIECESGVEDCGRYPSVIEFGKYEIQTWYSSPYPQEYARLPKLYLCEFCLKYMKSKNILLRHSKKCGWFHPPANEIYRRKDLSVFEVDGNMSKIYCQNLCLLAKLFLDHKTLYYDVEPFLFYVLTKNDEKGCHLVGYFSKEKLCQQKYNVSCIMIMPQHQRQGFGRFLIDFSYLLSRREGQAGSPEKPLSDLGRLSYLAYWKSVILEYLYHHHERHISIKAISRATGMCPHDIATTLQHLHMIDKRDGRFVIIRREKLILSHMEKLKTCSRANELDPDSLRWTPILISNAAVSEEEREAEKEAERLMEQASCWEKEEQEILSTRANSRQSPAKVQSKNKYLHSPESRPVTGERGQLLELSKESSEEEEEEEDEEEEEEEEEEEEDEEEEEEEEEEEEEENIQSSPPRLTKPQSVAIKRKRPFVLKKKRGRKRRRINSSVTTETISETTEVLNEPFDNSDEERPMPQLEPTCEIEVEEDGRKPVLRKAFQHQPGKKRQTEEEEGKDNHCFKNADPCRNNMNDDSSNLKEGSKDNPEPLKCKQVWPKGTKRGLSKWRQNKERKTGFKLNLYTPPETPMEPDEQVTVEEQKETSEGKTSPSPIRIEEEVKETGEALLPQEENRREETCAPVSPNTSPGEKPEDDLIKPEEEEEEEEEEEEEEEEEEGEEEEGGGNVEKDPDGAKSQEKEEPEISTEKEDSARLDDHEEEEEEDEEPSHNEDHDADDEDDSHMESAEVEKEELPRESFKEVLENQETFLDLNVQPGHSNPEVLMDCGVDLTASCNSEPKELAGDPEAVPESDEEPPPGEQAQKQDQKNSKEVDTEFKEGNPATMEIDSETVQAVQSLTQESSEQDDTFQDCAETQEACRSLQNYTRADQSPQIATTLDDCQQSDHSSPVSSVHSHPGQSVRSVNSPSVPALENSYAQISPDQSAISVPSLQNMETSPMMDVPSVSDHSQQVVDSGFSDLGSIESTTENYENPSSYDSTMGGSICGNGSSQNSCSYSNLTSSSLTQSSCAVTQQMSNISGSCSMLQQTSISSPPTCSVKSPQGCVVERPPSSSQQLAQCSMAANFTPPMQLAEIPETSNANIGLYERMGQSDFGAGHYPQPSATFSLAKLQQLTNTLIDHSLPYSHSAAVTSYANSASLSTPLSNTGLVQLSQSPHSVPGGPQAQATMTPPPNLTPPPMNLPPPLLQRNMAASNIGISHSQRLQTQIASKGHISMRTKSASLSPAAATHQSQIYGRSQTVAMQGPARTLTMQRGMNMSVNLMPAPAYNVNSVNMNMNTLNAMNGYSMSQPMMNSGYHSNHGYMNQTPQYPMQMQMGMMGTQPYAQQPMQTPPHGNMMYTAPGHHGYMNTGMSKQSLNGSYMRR
Summary of the method: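 TR-FRET assay in Tris-HCl buffer: enzyme preincubated with compound 15 min at room temperature, then biotin-H3(1-21) peptide and acetyl-CoA added for 90 min at room temperature. Acetylation detected with Eu-anti-acetyl-histone H4 lysine antibody and ULight-streptavidin (60 min), 665/620 nm ratio; IC50 from four-parameter logistic fit.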

[2] = test system: human breast cancer ZR-75-1 cell xenografts; experiment: In vivo efficacy study in BALB/c nude mouse model with subcutaneous ZR-75-1 xenografts; conditions: for T/C / TGI / Tumor Volume: 0.3 mg/kg; for T/C / TGI: based on tumor volume on day 21 post-administration; for Tumor Volume: day 21 post-administration, female BALB/c nude mice, 7 per group; for anti-tumor effects: ZR-75-1 xenograft model, tumor growth curves FIG. 2, result in words
Text: IV. In vivo efficacy study of test drug Compound 2, Compound 5-P2, Compound 3, and Compound A in a BALB/c nude mouse model with subcutaneously implanted human breast cancer ZR-75-1 cell xenografts
The objective of this experiment is to evaluate the in vivo efficacy of the test drug Compound 2, Compound 5-P2, Compound 3, and Compound A in a BALB/c nude mouse model with subcutaneously implanted human breast cancer ZR-75-1 cell xenografts.
as §1
Human breast cancer ZR-75-1 (ATCC, CRL-1500) cells were cultured in vitro as adherent cultures. The culture conditions were: 1640 medium supplemented with 10 vol% FBS, 100 U/mL penicillin, and 100 µg/mL streptomycin, incubated in a 37°C, 5% CO2 cell culture incubator. Routine passaging was performed twice a week. When cell confluence reached 80%-90% and the cell number met the requirements, cells were harvested, counted, and inoculated.
Three days before cell implantation, a 17β-estrogen pellet (0.36 mg) was implanted into the left dorsal side of each mouse. Starting one week after pellet implantation, animals were urinated 2-3 times per week. If necessary, animals were urinated daily.
as §2
The experimental index is to investigate whether tumor growth is inhibited, delayed, or cured. Tumor diameters were measured three times per week using a vernier caliper. Tumor volume was calculated using the formula: V = 0.5a × b^2, where a and b represent the major and minor diameters of the tumor, respectively.
The anti-tumor efficacy of the compounds was evaluated using TGI (%) or the relative tumor proliferation rate T/C (%). TGI (%), reflects the tumor growth inhibition rate. TGI (%) was calculated as: TGI (%) = [1 - (Mean tumor volume of a treatment group at the end of administration - Mean tumor volume of the same treatment group at the start of administration) / (Mean tumor volume of the vehicle control group at the end of treatment - Mean tumor volume of the vehicle control group at the start of treatment)] × 100%.
Relative Tumor Proliferation Rate T/C (%): The calculation formula is as follows: T/C% = TRTV / CRTV ×100 % (TRTV: RTV of the treatment group; CRTV: RTV of the negative control group). The relative tumor volume (RTV) was calculated based on tumor measurement results using the formula RTV = Vt /V0, where V0 is the tumor volume of each mouse measured at the start of grouping and administration (i.e., d0), and Vt is the tumor volume of each mouse at a specific measurement time. The mean value for each group was then calculated. V0 and Vt correspond to tumor volume data from the same mouse.

Row | SMILES | IC50 (ZR-75-1 cells) [nM] | body weight changes [1] | tolerability in tumor-bearing mice [1] | IC50 (KAT6B) [nM] | T/C [2] [%] | TGI [2] [%] | Tumor Volume [2] [mm^3] | anti-tumor effects [2]
1 | COc1ccc2c(c1S(=O)(=O)Nc1noc3cc(Cn4cccn4)cc(OC)c13)OCCCO2 [Compound 2, N-(6-((1H-Pyrazol-1-yl)methyl)-4-methoxybenzo[d]isoxazol-3-yl)-7-methoxy-3,4-dihyd ro-2H-benzo[b][1,4]dioxepine-6-sulfonamide] | 3.2 | not significant | tolerated | 25.2 | 20.83 | 93.97 | 182 ± 39 | more significant anti-tumor effects compared to Compound A
2 | COc1ccc2c(c1S(=O)(=O)Nc1noc3cc(Cn4cccn4)cc(OC)c13)OC[C@@H]1C[C@H]21 [Compound 5-P2, (1aR,7bS)-N-(6-((1H-Pyrazol-1-yl)methyl)-4-methoxybenzo[d]isoxazol-3-yl)-5-methoxy-1,1a,2,7b-tetrahydrocyclopropa[c]chromene-4-sulfonamide] | 0.1 | not significant | tolerated | 1.6 | 12.10 | 105.10 | 102 ± 14 | more significant anti-tumor effects compared to Compound A
